# Reference: article PMC9226124, “Macrocycle-stabilization of its interaction with 14-3-3 increases plasma membrane localization and activity of CFTR” (Nature Communications, 2022)
# Values joined by “and” are separate entries in the source; they are usually repeats but may differ in a detail not shown here. Identical values can stand only once.
# What was measured:
# Type in all cases: binding
# 14-3-3β/Foxo3 peptide = biological target: T1, 14-3-3β/Foxo3 peptide (Homo sapiens, UniProt P31946); assay: FP assay of 14-3-3 partner protein peptide, Foxo3; conditions: CY007424 100 μM
# T1 construct: His6 (cleaved yes); made in house
# T1 sequence (P31946 1-246): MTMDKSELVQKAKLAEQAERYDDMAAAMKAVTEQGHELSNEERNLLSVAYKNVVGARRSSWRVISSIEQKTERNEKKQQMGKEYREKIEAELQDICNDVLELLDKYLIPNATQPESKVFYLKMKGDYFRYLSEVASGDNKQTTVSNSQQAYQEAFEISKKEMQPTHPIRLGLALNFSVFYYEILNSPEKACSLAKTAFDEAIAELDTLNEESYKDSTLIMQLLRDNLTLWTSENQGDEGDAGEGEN
# Procedure: (§1) The FITC-labeled peptides were dissolved in FP buffer (10 mM HEPES pH 7.4, 150 mM NaCl, 0.1% Tween20, 1 mg/mL BSA) to a final concentration of 100 nM or 10 nM. For the dose-response assays, a 14-3-3β concentration of 10 μM was used while titrating the compounds in a two-times dilution series and, for the other assays, a dilution series of 14-3-3β was made with constant concentration of compound. The dilution series were made in 384 Corning Black Round Bottom well plates and their polarization was measured with a Tecan Infinite F500 plate reader (ex. = 485 nm, em. = 535 nm). The method of fitting of the curves was: “log(agonist) vs. response – Variable slope (four parameters)” from GraphPad Prism. The equation is Y = Bottom + (Top-Bottom)/(1 + 10^((LogEC50-X)*HillSlope)).
# (§2) Supplementary Figure 2. Stabilization of the interaction between 14-3-3β and a collection of different 14-3-3 partner protein peptides by CY00742 4. […] Background polarization was subtracted from all values, n=3 technical replicates. Source data are provided as a Source Data file.
# (§3) (1 picture or pasted object on this page, not shown here)
# 14-3-3β/IRS1 peptide = biological target: T2, 14-3-3β/IRS1 peptide (Homo sapiens, UniProt P31946); assay: FP assay of 14-3-3 partner protein peptide, IRS1; conditions: 100 µM compound
# T2 construct: His6 (cleaved yes); made in house
# T2 sequence (P31946 1-246): T1 sequence (P31946 1-246)
# Procedure: as §1, §2, §3
# 14-3-3β/p53 peptide = biological target: T3, 14-3-3β/p53 peptide (Homo sapiens, UniProt P31946); assay: FP assay of 14-3-3 partner protein peptide, p53; conditions: CY007424 100 μM
# T3 construct: His6 (cleaved yes); made in house
# T3 sequence (P31946 1-246): T1 sequence (P31946 1-246)
# Procedure: as §1, §2, §3
structure (smiles),measurement,setting,value
N=C(N)NCCCC1NCc2ccccc2Sc2ccccc2CNC(=O)C(Cc2ccc(O)cc2)NC(=O)C(CCCN)NC1=O (centres unmarked) [CY007424],FP signal,14-3-3β/Foxo3 peptide; 14-3-3β 3.8147e-9 M,0.3333
same,FP signal,14-3-3β/Foxo3 peptide; 14-3-3β 3.05176e-8 M,4.333 and 3.333
same,FP signal,14-3-3β/Foxo3 peptide; 14-3-3β 6.10352e-8 M,7.333 and 6.333
same,FP signal,14-3-3β/Foxo3 peptide; 14-3-3β 1.2207e-7 M,14.3333 and 19.3333 and 15.3333
same,FP signal,14-3-3β/Foxo3 peptide; 14-3-3β 2.44141e-7 M,27.3333 and 29.3333 and 28.3333
same,FP signal,14-3-3β/Foxo3 peptide; 14-3-3β 4.88281e-7 M,45.3333 and 46.3333 and 43.3333
same,FP signal,14-3-3β/Foxo3 peptide; 14-3-3β 9.76563e-7 M,62.3333 and 55.3333
same,FP signal,14-3-3β/Foxo3 peptide; 14-3-3β 1.95313e-6 M,71.3333 and 70.3333
same,FP signal,14-3-3β/Foxo3 peptide; 14-3-3β 3.90625e-6 M,88.3333 and 86.3333 and 85.3333
same,FP signal,14-3-3β/Foxo3 peptide; 14-3-3β 7.8125e-6 M,104.333 and 105.333 and 107.333
same,FP signal,14-3-3β/Foxo3 peptide; 14-3-3β 1.5625e-5 M,129.333 and 126.333 and 125.333
same,FP signal,14-3-3β/Foxo3 peptide; 14-3-3β 3.125e-5 M,145.333 and 149.333 and 146.333
same,FP signal,14-3-3β/Foxo3 peptide; 14-3-3β 6.25e-5 M,167.333 and 166.333
same,FP signal,14-3-3β/Foxo3 peptide; 14-3-3β 0.000125 M,181.333 and 182.333 and 185.333
same,FP signal,14-3-3β/Foxo3 peptide; 14-3-3β 0.00025 M,195.333 and 193.333 and 196.333
same,stabilization of the 14-3-3/IRS1 peptide complex,14-3-3β/IRS1 peptide,some stabilization of the complex
same,FP signal,14-3-3β/p53 peptide; 14-3-3β 59.6 pM,4 and 3
same,FP signal,14-3-3β/p53 peptide; 14-3-3β 119.2 pM,4 and 3
same,FP signal,14-3-3β/p53 peptide; 14-3-3β 3.8147e-9 M,4 and 7
same,FP signal,14-3-3β/p53 peptide; 14-3-3β 7.62939e-9 M,7 and 6 and 4
same,FP signal,14-3-3β/p53 peptide; 14-3-3β 1.52588e-8 M,5 and 3 and 4
same,FP signal,14-3-3β/p53 peptide; 14-3-3β 3.05176e-8 M,3 and 5 and 4
same,FP signal,14-3-3β/p53 peptide; 14-3-3β 6.10352e-8 M,10 and 9
same,FP signal,14-3-3β/p53 peptide; 14-3-3β 1.2207e-7 M,13 and 15
same,FP signal,14-3-3β/p53 peptide; 14-3-3β 2.44141e-7 M,15 and 18
same,FP signal,14-3-3β/p53 peptide; 14-3-3β 4.88281e-7 M,20 and 24 and 21
same,FP signal,14-3-3β/p53 peptide; 14-3-3β 9.76563e-7 M,21 and 25 and 23
same,FP signal,14-3-3β/p53 peptide; 14-3-3β 1.95313e-6 M,20 and 22 and 21
same,FP signal,14-3-3β/p53 peptide; 14-3-3β 3.90625e-6 M,21 and 20
same,FP signal,14-3-3β/p53 peptide; 14-3-3β 7.8125e-6 M,24 and 20 and 21
same,FP signal,14-3-3β/p53 peptide; 14-3-3β 1.5625e-5 M,17 and 22 and 25
same,FP signal,14-3-3β/p53 peptide; 14-3-3β 3.125e-5 M,26 and 24 and 29
same,FP signal,14-3-3β/p53 peptide; 14-3-3β 6.25e-5 M,31 and 32 and 34
same,FP signal,14-3-3β/p53 peptide; 14-3-3β 0.000125 M,44 and 45 and 48
same,FP signal,14-3-3β/p53 peptide; 14-3-3β 0.00025 M,66 and 67 and 63
